Assay [1] deals with neurosphere cultures of primary rat neural stem cells. Put plainly: Neurosphere cultures, immunocytochemistry for neural markers. It is filed as cell-based. The settings on record: 10 μM during a week; compared to control (FIG. 3). From the text: Neurosphere (NS) cultures were derived from the hippocampus of adult rats and induced to proliferate using established passaging methods to achieve optimal cellular expansion according to published protocols [Ferron, S. R.; Andreu-Agullo, C.; Mira, H.; Sanchez, P.; Marques-Torrejon, M. A.; Farinas, I. A combined ex/in vivo assay to detect effects of exogenously added factors in neural stem cells. Nature Protoc. 2007, 2, 849-859]. Rats were decapitated, brains removed, and the hippocampus dissected as described [Morales-Garcia, J. A.; Luna-Medina, R.; Alfaro-Cervello, C.; Cortes-Canteli, M.; Santos, A.; Garcia-Verdugo, J. M.; Perez-Castillo, A. Peroxisome proliferator-activated receptor gamma ligands regulate neural stem cell proliferation and differentiation in vitro and in vivo. Glia 2011, 59, 293-307]. Briefly, cells were seeded into 12-well dishes and cultured in DMEM/F12 (1:1, Invitrogen) containing 10 ng/mL epidermal growth factor (EGF, Peprotech, London, UK), 10 ng/mL fibroblast growth factor (FGF, Peprotech), and B27 medium (Gibco). After 3 days in culture, NS were cultivated in the presence or absence of the indicated compounds (10 μM) during a week. After that, NS from 10-day old cultures were plated for 72 hours onto 100 μg/mL poly-L-lysine-coated coverslips in the absence of exogenous growth factors.
Neurogenesis is a crucial property for new AD-modifying drugs, since it confers the potential to increase endogenous regeneration as a repair mechanism in the damaged brain, and reduce neuronal loss and degeneration. Considering that GSK-3β inhibition is reported to regulate and increase neurogenesis [Lange, C.; Mix, E.; Frahm, J.; Glass, A.; Muller, J.; Schmitt, O.; Schmole, A. C.; Klemm, K.; Ortinau, S.; Hubner, R.; Frech, M. J.; Wree, A.; Rolfs, A. Small molecule GSK-3 inhibitors increase neurogenesis of human neural progenitor cells. Neurosci. […]

The test system of assay [2] is triggering receptor expressed on myeloid cells 2 (TREM2). In words: Western blot analysis of TREM2 (M2 marker) in LPS-treated microglia cells. The settings on record: LPS 100 ng/mL, 24 hours co-treatment; microglia cells (FIG. 5c). It is filed as cell-based, rat. As for the experimental part: Mixed glial cell cultures were prepared from cerebral cortex of newborn Wistar rats (Rattus norvegicus), as previously described [Monti, B.; D'Alessandro, C.; Farini, V.; Bolognesi, A.; Polazzi, E.; Contestabile, A.; Stirpe, F.; Battelli, M. G. In vitro and in vivo toxicity of type 2 ribosome-inactivating proteins lanceolin and stenodactylin on glial and neuronal cells. Neurotoxicology 2007, 28, 637-644]. Briefly, brain tissue was cleaned from meninges, trypsinized for 15 minutes at 37° C. and, after mechanical dissociation, the cell suspension was washed and plated on poly-L-lysine (Sigma-Aldrich, St. Louis, Mo., USA, 10 μg/mL) coated flasks (75 cm^2). Mixed glial cells were cultured for 10-13 days in Basal Medium Eagle (BME, Life technologies Ltd, Paisley, UK) supplemented with 100 mL/L heat-inactivated FBS (Life technologies), 2 mmol/L glutamine (Sigma-Aldrich) and 100 μmol/L gentamicin sulfate (Sigma-Aldrich).
Microglial cells were harvested from mixed glial cell cultures by mechanical shaking, resuspended in fresh medium without serum and plated on uncoated 35 mm Ø dishes at a density of 1.5×10^6 cells/1.5 mL medium/well for western blot analysis or on 96 wells at 1×10^5 cells/0.2 mL medium/well for MTT assay. […]
J. Biol. Chem. 1951, 193, 265-275]. […] Labelled proteins were detected by using the enhanced chemiluminescence method (ECL; Bio-RAD). […]
Background: Immunoblotting shows a protein as a band on a membrane.

As for `CCNC1=NC(c2ccc(F)cc2)NC(=O)N1` (racemic) [Example 3, 6-(ethylamino)-4-(4-fluorophenyl)-3,4-dihydro-1,3,5-triazin-2(1H)-one], the “number of β-tubulin positive cells (immature neuronal marker)” value in assay [1] is listed as “significantly increased”. Also, the “TREM2 expression reduced by LPS” value in assay [2] is “restored”.
In the case of `CCCNC1=NC(c2ccc(F)cc2)NC(=O)N1` (stereo not shown) [Example 6, 4-(4-fluorophenyl)-6-(propylamino)-3,4-dihydro-1,3,5-triazin-2(1H)-one], the “number of MAP-2 positive cells (mature neuronal marker)” value in assay [1] was “significantly amplified”. Moreover, the “TREM2 expression reduced by LPS” value in assay [2] is reported as “restored”.

The values above are taken from US9975861B2, “Dual inhibitor compounds for use in the treatment of neurodegenerative disorders and alzheimer's disease” (FONDAZIONE ISTITUTO ITALIANO DI TECNOLOGIA, priority 2014, dated 2018).
